# Experimental data from patent US20130310379A1, “MODULATORS OF METHYL MODIFYING ENZYMES, COMPOSITIONS AND USES THEREOF” (CONSTELLATION PHARMACEUTICALS, priority 2010, published 2013).
# Key:
# [1] = target: EZH2 (Homo sapiens, UniProt Q15910); assay: EZH2 assay: rPRC2 with biotinylated oligonucleosome substrates and 3H SAM, FlashPlate scintillation counting, IC50; type: biochemical; settings: rPRC2, biotinylated oligonucleosome substrates, 3H SAM; read-out: EZH2 IC50
# Method in brief: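 rPRC2 (2 nM EZH2) pre-incubated 20 min with compound (80 to 0.16 uM, ten 2-fold steps), then 60 min reaction with 0.2 uM 3H SAM, 0.2 uM biotinylated oligonucleosomes, 3.6 uM H3K27me3 peptide in Tris pH 8.5. SAH/EDTA quench; 4-parameter IC50 fit.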
# [2] = target: Y641N EZH2 (Homo sapiens, UniProt Q15910, Y641N); assay: Y641N EZH2 assay: performed as the EZH2 assay, using reconstituted H3K27Me2 oligonucleosomes as substrate; type: biochemical
# Experimental: Assays were carried out by mixing rPRC2 together with biotinylated oligonucleosome substrates in the presence of the radio-labeled enzyme co-factor, S-adenosyl-L-methionine (^3H SAM) (Perkin Elmer) and monitoring the enzymatically mediated transfer of tritiated methyl groups from ^3H SAM to histone lysine residues. The amount of resulting tritated methylhistone product was measured by first capturing the biotinylated oligonuclesomes in streptavidin (SAV) coated FlashPlates (Perkin Elmer), followed by a wash step to remove un-reacted ^3H SAM, and then counting on a TopCount NXT 384 well plate scintillation counter (Perkin Elmer). The final assay conditions for EZH2 were as follows: 50 mM Tris Buffer pH 8.5, 1 mM DTT, 69 uM Brij-35 detergent, 5.0 mM MgCl2, 0.1 mg/mL BSA, 0.2 uM ^3H SAM, 0.2 uM biotinylated oligonucleosomes, 3.6 uM H3K27me3 peptide and 2 nM EZH2.
# Compound IC50 measurements were obtained as follows: Compounds were first dissolved in 100% DMSO as 10 mM stock solutions. […] A 12.5 uL volume of the HMT enzyme, H3K27me3 peptide and oligonucleosome substrate in assay buffer was added to each well of the assay plate using a Multidrop Combi (ThermoFisher). Compounds were pre-incubated with the enzyme for 20 min, followed by initiation of the methyltransferase reaction by addition of 12.5 uL of 3H SAM in assay buffer (final volume=25 uL). The final concentrations of compounds ranged from a top default concentration of 80 uM down to 0.16 uM in ten 2-fold dilution steps. Reactions were carried out for 60 minutes and quenched with 20 uL per well of 1.96 mM SAH, 50 mM Tris PH 8.5, 200 mM EDTA. Stopped reactions were transferred to SAV coated Flashplates (Perkin Elmer), incubated for 120 min, washed with a plate washer, and then read on the TopCount NXT (1.0 min/well) to measure the amount of methylhistone product formed during the reaction. The amount of methylhistone product was compared with the amount of product formed in the 0% and 100% inhibition control wells allowing the calculation of % Inhibition in the presence of the individual compounds at various concentrations. IC50's were computed using a 4 parameter fit non-linear curve fitting software package (XLFIT, part of the database package, ActivityBase (IDBS)) where the four parameters were IC50, Hill slope, pre-transitional baseline (0% INH), and post-transitional baseline (100% INH); with the latter two parameters being fixed to zero and 100%, respectively, by default.
# Sequence of Y641N EZH2 (Q15910 whole entry Y641N): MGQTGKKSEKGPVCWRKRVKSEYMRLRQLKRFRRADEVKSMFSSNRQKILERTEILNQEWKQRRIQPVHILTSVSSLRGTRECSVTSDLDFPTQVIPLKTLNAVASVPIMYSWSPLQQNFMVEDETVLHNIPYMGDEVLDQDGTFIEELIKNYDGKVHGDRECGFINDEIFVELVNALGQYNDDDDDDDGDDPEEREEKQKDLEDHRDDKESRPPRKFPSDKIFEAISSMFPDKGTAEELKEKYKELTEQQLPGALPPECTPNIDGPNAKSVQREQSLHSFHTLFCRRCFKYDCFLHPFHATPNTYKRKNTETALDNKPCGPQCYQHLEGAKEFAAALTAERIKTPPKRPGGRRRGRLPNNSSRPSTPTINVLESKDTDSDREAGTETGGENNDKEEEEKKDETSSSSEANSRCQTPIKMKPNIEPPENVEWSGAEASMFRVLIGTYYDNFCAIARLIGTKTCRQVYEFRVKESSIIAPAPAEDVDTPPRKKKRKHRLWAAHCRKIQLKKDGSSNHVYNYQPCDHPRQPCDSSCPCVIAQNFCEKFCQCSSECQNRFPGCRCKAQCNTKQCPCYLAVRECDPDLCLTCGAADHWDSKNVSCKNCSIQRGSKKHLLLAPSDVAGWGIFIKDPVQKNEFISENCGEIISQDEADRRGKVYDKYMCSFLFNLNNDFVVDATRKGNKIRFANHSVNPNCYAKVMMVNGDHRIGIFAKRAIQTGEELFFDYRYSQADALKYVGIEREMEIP
# Sequence of Y641N EZH2 (O75530 whole entry partner): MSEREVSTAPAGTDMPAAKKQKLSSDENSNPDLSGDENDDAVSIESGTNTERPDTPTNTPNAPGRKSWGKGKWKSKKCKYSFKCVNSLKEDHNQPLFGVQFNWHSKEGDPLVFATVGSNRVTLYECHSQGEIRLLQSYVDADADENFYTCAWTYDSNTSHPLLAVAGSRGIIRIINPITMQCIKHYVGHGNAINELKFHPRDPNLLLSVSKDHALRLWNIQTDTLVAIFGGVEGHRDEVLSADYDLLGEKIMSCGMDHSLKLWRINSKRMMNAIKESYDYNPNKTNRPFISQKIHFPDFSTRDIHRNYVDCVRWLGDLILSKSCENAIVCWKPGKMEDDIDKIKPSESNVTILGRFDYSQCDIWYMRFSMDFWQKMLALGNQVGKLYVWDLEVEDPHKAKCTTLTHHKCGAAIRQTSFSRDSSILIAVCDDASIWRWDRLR
# Sequence of Y641N EZH2 (Q15022 whole entry partner): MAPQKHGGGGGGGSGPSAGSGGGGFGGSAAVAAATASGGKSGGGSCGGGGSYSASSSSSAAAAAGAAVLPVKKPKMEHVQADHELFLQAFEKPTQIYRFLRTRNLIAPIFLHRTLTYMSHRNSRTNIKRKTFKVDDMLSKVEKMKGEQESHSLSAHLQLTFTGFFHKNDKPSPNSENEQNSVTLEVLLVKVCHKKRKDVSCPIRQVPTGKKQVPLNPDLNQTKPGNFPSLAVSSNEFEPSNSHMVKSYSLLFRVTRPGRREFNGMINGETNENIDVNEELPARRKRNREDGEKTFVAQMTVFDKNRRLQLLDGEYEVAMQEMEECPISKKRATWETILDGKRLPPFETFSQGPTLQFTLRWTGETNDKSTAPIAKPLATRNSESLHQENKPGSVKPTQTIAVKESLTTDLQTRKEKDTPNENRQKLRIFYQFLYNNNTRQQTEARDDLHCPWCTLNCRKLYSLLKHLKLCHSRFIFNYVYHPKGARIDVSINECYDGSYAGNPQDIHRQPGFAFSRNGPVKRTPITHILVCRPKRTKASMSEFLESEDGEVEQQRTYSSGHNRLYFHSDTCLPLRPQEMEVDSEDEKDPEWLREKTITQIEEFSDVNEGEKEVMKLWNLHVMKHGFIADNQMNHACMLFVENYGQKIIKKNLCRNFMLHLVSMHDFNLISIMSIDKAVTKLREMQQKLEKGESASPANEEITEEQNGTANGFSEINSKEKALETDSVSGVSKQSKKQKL
# Sequence of EZH2 (Q15910 whole entry): as the sequence (Q15910 whole entry Y641N) above, with N641Y counted along it
# Sequence of EZH2 (O75530 whole entry partner): as the sequence (O75530 whole entry partner) above
# Sequence of EZH2 (Q15022 whole entry partner): as the sequence (Q15022 whole entry partner) above
Compound,IC50 [1] [µM],IC50 [2] [µM]
Cc1cc(C(=O)NC2CC(C)(C)NC(C)(C)C2)ccc1Oc1ccccc1C#N [Compound I-223],< 5,5 to 20
CC1(C)CC(NC(=O)c2ccc(Oc3cccc(-c4ccc(N)nc4)c3)cc2)CC(C)(C)N1 [Compound I-228],5 to 20,> 80
CC1(C)CC(NC(=O)c2ccc(Oc3cccc(Br)c3C#N)c(Cl)c2)CC(C)(C)N1 [Compound I-254],< 5,< 5
CC1(C)CC(NC(=O)c2ccc(Oc3cccc(Cl)c3C#N)c(Cl)c2)CC(C)(C)N1 [Compound I-256],< 5,< 5
CC1(C)CC(NC(=O)c2ccc(Oc3cccc(I)c3C#N)c(Cl)c2)CC(C)(C)N1 [Compound I-257],< 5,< 5
CC1(C)CC(NC(=O)c2ccc(Oc3cccc(F)c3C#N)c(Cl)c2)CC(C)(C)N1 [Compound I-258],< 5,< 5
Cc1cc(C(=O)NC2CC(C)(C)NC(C)(C)C2)ccc1Oc1cccc(Br)c1C#N [Compound I-259],< 5,< 5
Cc1cc(C(=O)NC2CC(C)(C)NC(C)(C)C2)ccc1Oc1cccc(-c2ccccc2)c1C#N [Compound I-260],< 5,20 to 80
Cc1cc(C(=O)NC2CC(C)(C)NC(C)(C)C2)ccc1Oc1cccc(-c2cn[nH]c2)c1C#N [Compound I-262],< 5,< 5
CCc1cccc(Oc2ccc(C(=O)NC3CC(C)(C)NC(C)(C)C3)cc2C)c1C#N [Compound I-266],< 5,< 5
CC1(C)CC(NC(=O)c2ccc(Oc3cccc(NCC(N)=O)c3)c(Cl)c2)CC(C)(C)N1 [Compound I-304],5 to 20,> 80
CC1(C)CC(NC(=O)c2ccc(Oc3cccc(-c4cn[nH]c4)c3C#N)c(Cl)c2)CC(C)(C)N1 [Compound I-307],< 5,< 5
CC1(C)CC(NC(=O)c2ccc(Oc3cccc(-c4cccnc4)c3C#N)c(Cl)c2)CC(C)(C)N1 [Compound I-308],< 5,< 5
CC1(C)CC(NC(=O)c2ccc(Oc3cccc(-c4ccc(N)nc4)c3C#N)c(Cl)c2)CC(C)(C)N1 [Compound I-312],< 5,< 5
CC1(C)CC(NC(=O)c2ccc(Oc3ccccc3-c3cnc4ccccc4c3)c(Cl)c2)CC(C)(C)N1 [Compound I-320],< 5,5 to 20
CC1(C)CC(NC(=O)c2ccc(Oc3cccc4cnccc34)c(Cl)c2)CC(C)(C)N1 [Compound I-324],< 5,5 to 20
CC(Oc1cccc(Oc2ccc(C(=O)NC3CC(C)(C)NC(C)(C)C3)cc2Cl)c1C#N)C(N)=O (stereo not drawn) [Compound I-326],5 to 20,> 80
CC1(C)CC(NC(=O)c2ccc(-n3ncc4ccccc43)c(Cl)c2)CC(C)(C)N1 [Compound I-327],< 5,5 to 20
CC1(C)CC(NC(=O)c2ccc(/C=C/c3ccccc3)cc2)CC(C)(C)N1 [Compound I-330],20 to 80,> 80
COc1cccc(Oc2ccc(C(=O)NC3CC(C)(C)NC(C)(C)C3)cc2Cl)c1C#N [Compound I-333],< 5,5 to 20
CN(C)c1cccc(Oc2ccc(C(=O)NC3CC(C)(C)NC(C)(C)C3)cc2Cl)c1C#N [Compound I-334],< 5,5 to 20
CC1(C)CC(NC(=O)c2ccc(Oc3cccc(-c4ccncc4)c3C#N)c(Cl)c2)CC(C)(C)N1 [Compound I-339],< 5,< 5
CC1(C)CC(NC(=O)c2ccc(Oc3cccc(-c4cncnc4)c3C#N)c(Cl)c2)CC(C)(C)N1 [Compound I-340],< 5,5 to 20
CCc1cccc(Oc2ccc(C(=O)NC3CC(C)(C)NC(C)(C)C3)cc2Cl)c1-c1ccncc1 [Compound I-342],20 to 80,> 80
CCc1cccc(Oc2ccc(C(=O)NC3CC(C)(C)NC(C)(C)C3)cc2Cl)c1-c1cccnc1 [Compound I-343],20 to 80,20 to 80

# Further lines, results first:
IC50 [1] [µM],IC50 [2] [µM],Compound
5 to 20,> 80,CN(C(=O)c1ccc(Oc2ccccc2C#N)c(Cl)c1)C1CC(C)(C)NC(C)(C)C1 [Compound I-344]
< 5,< 5,CC1(C)CC(NC(=O)c2ccc(Oc3cccc(-c4cn[nH]c4)c3C#N)c(Br)c2)CC(C)(C)N1 [Compound I-347]
> 80,> 80,CC1(C)CC(N2Cc3cc(Oc4ccccc4C#N)c(Cl)cc3C2=O)CC(C)(C)N1 [Compound I-356]
< 5,5 to 20,Cc1ccc(-c2cccc(Oc3ccc(C(=O)NC4CC(C)(C)NC(C)(C)C4)cc3Cl)c2C#N)cn1 [Compound I-362]
< 5,< 5,CC1(C)CC(NC(=O)c2ccc(Oc3cccc(-c4cccnc4)c3C#N)c(Br)c2)CC(C)(C)N1 [Compound I-364]
< 5,< 5,CC1(C)CC(NC(=O)c2ccc(Oc3cccc(-c4ccccn4)c3C#N)c(Cl)c2)CC(C)(C)N1 [Compound I-367]
< 5,< 5,CCc1cccc(Oc2ccc(C(=O)NC3CC(C)(C)NC(C)(C)C3)cc2Br)c1C#N [Compound I-369]
< 5,< 5,CC1(C)CC(NC(=O)c2ccc(Oc3cccc(-c4ccnc(N)c4)c3C#N)c(Cl)c2)CC(C)(C)N1 [Compound I-375]
20 to 80,20 to 80,CC1(C)CC(NC(=O)c2ccc(Oc3cccc(N4CCCC4)c3)c(Cl)c2)CC(C)(C)N1 [Compound I-379]
< 5,20 to 80,CNCc1cccc(Oc2ccc(C(=O)NC3CC(C)(C)NC(C)(C)C3)cc2Cl)c1C#N [Compound I-381]
5 to 20,> 80,CC1(C)CC(NC(=O)c2ccc(Oc3cccc(N4CCCC4=O)c3)c(Cl)c2)CC(C)(C)N1 [Compound I-385]
< 5,5 to 20,CN(C)C(=O)Cn1cc(-c2cccc(Oc3ccc(C(=O)NC4CC(C)(C)NC(C)(C)C4)cc3Cl)c2C#N)cn1 [Compound I-395]
5 to 20,> 80,CC1(C)CC(NC(=O)c2ccc(Oc3cccc(N4CCOCC4=O)c3)c(Cl)c2)CC(C)(C)N1 [Compound I-397]
< 5,5 to 20,CC1(C)CC(NC(=O)c2ccc(Oc3cccc(-c4cn[nH]c4)c3C#N)c(F)c2)CC(C)(C)N1 [Compound I-398]
< 5,< 5,CC1OC(=O)c2c(Oc3ccc(C(=O)NC4CC(C)(C)NC(C)(C)C4)cc3Cl)cccc21 (stereo not drawn) [Compound I-401]
> 80,20 to 80,CC1(C)CC(NC(=O)c2ccc(Cn3ccnc3)cc2)CC(C)(C)N1 [Compound I-404]
20 to 80,> 80,CC1(C)CC(NC(=O)c2ccc(Cn3cnc4ccccc43)cc2)CC(C)(C)N1 [Compound I-405]
20 to 80,> 80,CC1(C)CC(NC(=O)c2ccc(N3CCC(c4ccccc4)C3)c(Cl)c2)CC(C)(C)N1 (stereo not drawn) [Compound I-413]
20 to 80,> 80,CNCc1cccc(Oc2ccc(C(=O)NC3CC(C)(C)NC(C)(C)C3)cn2)c1 [Compound I-415]
20 to 80,> 80,CN1CCN(c2cccc(Oc3ccc(C(=O)NC4CC(C)(C)NC(C)(C)C4)cc3Cl)c2)CC1 [Compound I-417]
